Literature values as cited in patent US6423320B1, “Inhibitor of immunoglobulin E antibody production” (Tayca Corporation, priority 1997, dated 2002).
Where a name gives a salt, the structure may show the parent alone.

Tested on: IgE antibody production
Conditions: Bio Industry, Vol. 13, No. 12, pp. 42-50 (1996)

CCOCC(O)COc1ccc(NC(=O)CC[S+](C)C)cc1 (stereo not shown) [IPD, Suplatast Tosylate]
Inhibitory action on the production of IgE antibody: extremely weak inhibitory action
